The subject of assay [1] is E. coli strain lacking TEM (ATCC 25922). In words: Structured illumination microscopy, inclusion bodies in strain lacking TEM. Format: cell-based, Escherichia coli. To be noted: 12 μM, 120 min, pFTAA stain, SIM. The text has this:
Fig. 5 Induction of aggregation in cells. […] A single representative image is shown. […] A single representative image is shown. C SIM and brightfield images as in A, but for E. coli ATCC strain. […] A single representative image is shown. […] A single representative blot is shown. […] The corrected P-values were 0.6091, 0.0029, 0.0027, <0.0001, and 0.9992, from left to right. […] Statistics exactly as in E, but from 3 independent experiments. The corrected P-values were 0.8753, 0.9796, 0.0001, 0.0003, and 0.0003, from left to right. Source data are provided as a Source Data file.
The bacterial cultures were washed with PBS, and the number of bacteria was adjusted to 10^8–10^9 cells/mL. […] Then, cells were treated with LCO dyes (pFTAA; Amytacker^TM680 or Amytacker^TM545: final concentration of 0.5 µM; Ebba Biotech, Sweden) for at least 90 min. The absorption, emission, and excitation spectra for each dye were measured based on the standard Ebbabiotec advice (ebbabiotech.com).
Bacteria were fixed by adding 2.5% paraformaldehyde and 0.04 % glutaraldehyde (final concentrations) to the culture media, followed by incubation at room temperature for 15 min and 30 min on ice. Bacteria were then washed in PBS and resuspended in GTE buffer (50 mM glucose, 25 mM Tris, and 10 mM EDTA, pH 8.0). Directly preceding microscopic analysis, cells were transferred to a glass slide and covered with a coverslip. […]

In assay [2] the test system is uro-pathogenic E. coli strain (UPEC strain blaTEM-1). The experiment in a line: Urinary tract infection model, bacterial load in bladder, kidney, ureter. As to conditions: each column one mouse. Format: in vivo, female C57BL/6JAX mice. On the set-up: bacterial load, Ureters / bacterial load, Bladder / bacterial load, Kindey: unit: CFU per mL of tissue extract. The method, then: Fig. 7 Evaluation of in vivo use of peptides that induce the aggregation of TEM beta-lactamase. A Lysis of human erythrocytes (hemolysis) was assessed in the presence of the indicated concentrations of TEM3.2 for 2 h at 37 °C, and normalized to the value obtained with 1% of the detergent triton. […] B Cell viability using the CellTiter Blue assay of HeLa cells treated for 24 h with the indicated concentrations TEM 3.2 at 37 °C. […] DAPI (4’,6-diamidino-2-phenylindole) is blue, while CellMask is red. D Experimental workflow of the in vivo model used in this study. E–G Bacterial load of indicated organs of female C57BL/6JAX mice with a urinary tract infection with E. coli strain UZ_TEM104, treated with 30 mg/kg penicillin (oral) as well 10 mg/kg tazobactam (oral) or 10 mg/kg TEM3.2 via the indicated treatment route. IV intravenous, IP intraperitoneal, SC subcutaneously. The data shown is from a single experiment with 12 animals for each group. The result for each animal is shown as a dot. […] The statistically significant differences were determined using ANOVA, followed by Dunnett’s multiple comparison test. […] Source data are provided as a Source Data file.
We also performed a tolerability study using a dose escalation method by administering the peptide at 2, 5, 10, 15, and 20 mg/kg via different parenteral routes: intravenous (IV), intraperitoneal (IP), and subcutaneous (SC) in female C57BL/6JAX mice, aged 8–10 weeks (Suppl Table 4). […] Vehicle alone (0.9% NaCl) was also administered (IV). After 24 h the animals were sacrificed and the bacterial load in the bladder, kidney, and ureter was quantified by determining the number of colony-forming units (CFU) per mL of tissue extract (Fig. 7E–G).
To test the efficacy of the peptides, a urinary tract infection model was performed as described previously. Briefly, female C57BL/6Jax mice female mice were deprived of water for at least 1 h. Then, they were anesthetized by IP administration of the mixture of ketamine (Nimatek)/xylazine (XYL-M 2% BE-V170581). The bladder of the mouse was massaged with fingers and pushed down gently to expel the remaining urine. Mice were slowly inoculated urethrally with 50 µL of a bacterial suspension slowly over 5 s to avoid vesicoureteral reflux (10^8 CFU/ mouse) using a sterile catheter (pediatric intravenous-access cannula (GS391350)). The catheter was removed directly after inoculation. After surgery, the animals were visually monitored for full recovery. After 1 h post inoculation, all mice received Ampicillin (30 mg/kg_PO-orally) and at the same time 3 groups of animals received the peptides via different administration routes (10 mg/kg_IV—intravenous; IP—intraperitoneal or SC—sub-cutaneous) and the positive control groups received tazobactam (10 mg/kg, PO). The negative control groups received vehicle or saline (IV administration). 2 h post inoculation, all mice received a second injection with the same concentration of each treatment as explained above. Twenty-four hours post-infection, mice were sacrificed and organs (kidney, bladder, ureter) were washed with PBS and were homogenized (Thermo Savant FastPrep FP120 Homogenizer/24 s). The homogenized tissues were serially diluted and cultured on blood agar plates. The plates were incubated overnight at 37 °C, and the number of bacteria was measured by CFU value.

Values joined by “and” are separate entries in the source; they are usually repeats but may differ in a detail not shown here. Equal entries are not always repeated.

The values that follow come from PMC10492782, “Exploiting the aggregation propensity of beta-lactamases to design inhibitors that induce enzyme misfolding” (Nature Communications, 2023).

Turning to Ac-RLTAFLHNRRPRLTAFLRQRR-NH2 [TEM3.2], in assay [1], the “inclusion body formation (in words)” value is “only very limited inclusion body formation”. Further, in assay [2] (group IP), the “bacterial load, Bladder” value is 833.333 (2×) and 4533.33 and 14866.7 and 4066.67 and 2533.33 and 900 and 1 (2×) and 37733.3 and 300 (2×); the “bacterial load, Kindey” value is 3566.67 and 133.333 and 27833.3 and 2666.67 and 1 (5×) and 4300 and 1700 and 2600; the “bacterial load, Ureters” value is 6333.33 and 33.3333 and 9933.33 and 233.333 and 1 (5×) and 1166.67 and 133.333 and 2500. In assay [2] (group IV), the “bacterial load, Bladder” value is 9200 and 1 (3×) and 6366.67 and 4033.33 and 1500 and 566.667 and 2833.33 and 266.667 and 66.6667 and 1833.33; the “bacterial load, Kindey” value is 1333.33 and 50433.3 and 24133.3 and 22233.3 and 400 (2×) and 1 (2×) and 29 and 6466.67 and 333.333 and 1900; the “bacterial load, Ureters” value was 10766.7 and 11733.3 and 2766.67 and 2633.33 and 1 (4×) and 15700 and 9366.67 and 766.667 and 233.333. Moreover, in assay [2] (group Sub), the “bacterial load, Bladder” value is 20866.7 and 166.667 and 3866.67 and 32100 and 933.333 and 300 and 1 (2×) and 1600 and 1500 and 366.667 and 133.333; the “bacterial load, Kindey” value is 18933.3 and 1 (6×) and 5766.67 and 66.6667 and 3300 and 4300 and 466.667; the “bacterial load, Ureters” value is 5500 and 1 (6×) and 5866.67 and 13433.3 and 2800 and 333.333 and 900.
